According to patent publication US6566047B1, “Method for identifying neurite-growth promoting agents” (The Regents of the University of Colorado, priority 1998, dated 2003):
Like-named read-outs stand apart in the source and are kept apart here.

Assays:
PLA2 = conditions: Table 3a, 100 nM
Procedure: Phospholipase Assays. For PLA2 assays, GCPs suspended in modified Ca^2+-free Krebs buffer (10-30 μg protein/assay) were first incubated for 10 min on ice in the presence or absence of effectors. Subsequently, phospholipid substrate (PC, PE or PI) containing radiolabelled AA (7 μM; 50,000 cpm/assay) was added and the reaction carried out at 37° C. for 10 minutes. Typically, assay mixtures contained 10 μM CaCl2; specific modifications are described in the figure legends. For phospholipase C (PLC) assays, conditions were the same when run in parallel with PLA2 assays. When PLC assays were run independently, Ca^2+ was increased to 1 mM. Reactions were terminated by the addition of 3.75 volumes of cold chloroform/methanol (1:2). PLA2 assays also were performed on neurons dissociated from fetal rat cerebral cortex. The assay conditions were the same as those just described for GCPs.
Products recovered in chloroform were loaded onto silica gel 60 TLC plates and developed as described earlier (Nègre-Aminou and Pfenninger, 1993) in hexane/ether/acetic acid (40:60:1). AA and DG were identified on TLC by co-migration with authentic standards. The appropriate bands were excised into scintillation fluid and counted on a Beckman LS 1801 scintillation sprectrometer. All assays were run in triplicate.

GCPs plated on laminin = assay: GCP release (detachment) assay on laminin; design: species or system rat
Procedure: GCP Release Assay. Petri dishes (35 mm diameter) were coated with 10 μg mouse laminin in PBS by incubation at room temperature for 60 min with shaking. Dishes were subsequently rinsed three times with PBS to remove unbound laminin and then blocked with 5% non-fat dry milk (Carnation) in PBS for 30 min. After three PBS rinses to remove blocking agent, the dishes were ready for the addition of GCPs. […] After incubation for five min at 37° C. this buffered GCP preparation was added to the laminincoated petri dishes. Contact with the substratum was facilitated by centrifuging the dishes for 15 min at 5000 g (Beckman JS5.2 rotor) at room temperature, followed by incubation at 37° C. to allow adhesion site formation. After 10 min, unattached GCPs were removed by rinsing the dishes twice with 1× modified Krebs buffer. Plated GCPs were then challenged with repellent factor (TRAP or thrombin) for 20 min at 37° C. The supernatant containing released GCPs was collected and centrifuged for protein determination of the pellet. GCPs that remained attached after repellent treatment were removed with 5% sodium dodecyl sulfate (SDS) for protein assay. Protein was measured according to Lowry et al. (1951) as modified by Peterson (1983). Results of these experiments were expressed as the percentage of released versus total GCP protein in the assay.

protein kinase C (PKC) = assay: MARCKS phosphorylation by PKC in isolated GCPs; assay type: biochemical, rat; conditions: isolated growth cones
Excerpt: FIG. 7A. Thrombin stimulates MARCKS phosphorylation in a 12-LOX-dependent manner. FIG. 7B. 12(S)-HETE stimulates MARCKS phosphorylation by PKC in isolated GCPs. […] Polypeptides were resolved by SDS-PAGE. MARCKS phosphorylation was quantified by phosphorimaging.

cPLA2 = cPLA2 activity in PC-3M-MM2 cells; assay type: biochemical, human
Procedure: PLA2 stimulation. Using ^14C-AA-PE, -PC or -PI as a substrate, thrombin, SemaIV and netrin activation of the enzyme are measured. For these assays, commercially available thrombin or thrombin-receptor-activating peptide (TRAP) (Sigma, St. Louis, Mo.), recombinant SemaIV provided to us by Dr. H. Drabkin, University of Colorado School of Medicine, recombinant SemaIII provided by Dr. Y. Luo, Exelixis Pharmaceuticals, San Francisco Calif., and recombinant netrin from Dr. M. Tessier-Lavigne, (University of California, San Francisco) are used. Time courses and dose-response curves are generated with the appropriate substrate(s). These assays are carried out according to well-established protocols described in Negre-Aminou et al., 1996, supra, incorporated herein by reference, on cells grown to equal density levels (as determined by protein and DNA content). Some enzyme assays are carried out in the presence of reducing agent, which blocks secreted but not cytosolic PLA2 activity, to exclude potential interference by secreted PLA2. To characterize the stimulated cPLA2 further, cultured cells are homogenized in protease inhibitor-containing buffer, in the presence of 1 mM EDTA or 0.3 mM Ca^2+, and then centrifuged in order to generate crude membrane fractions and cytosolic extracts. […] In separate experiments, enzyme activity is measured in the presence of different concentrations of free calcium to determine whether the enzyme activity is calcium-dependent or not

MAT-Lu cells [1] = assay: Pseudopod morphometry (pseudopod length assay), MAT-Lu cells; assay type: cell-based, rat
How it was run: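 Cells plated at 1×10^4 per 35-mm dish overnight, shifted to serum-free medium 1 h, then exposed to thrombin, AA or HETEs in medium or by local micropipette puff. Phase-contrast images over time at heated stage; length measured from nucleus centre to process tip, analysed by gamma regression and non-parametric tests.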

MAT-Lu cells [2] = assay: Boyden chamber motility assay, MAT-Lu cells; assay type: cell-based, rat; conditions: for Mat-Lu cells crossing filter in % of control +/− SEM: 4 hr, thrombin 200 nM, CDC 126 nM
Procedure: Boyden Chamber Motility Assays. Disposable transwells (Coming Costar, Cambridge, Mass.) of 6.5 mm diameter and 8 μm pore size were coated with 5 μg/ml laminin on both sides. The membranes were washed twice with Hank's balanced salt solution (HBSS) and then pre-incubated with growth medium containing 10% fetal bovine serum. Trypsinized cells (5×10^4) were plated into the upper well. After 1 hour the upper chamber was washed twice with HBSS, filled with serum-free medium and moved to a new lower chamber, also filled with serum-free medium, with or without thrombin and/or 0.75 nM insulin-like growth factor-1 (IGF-1). After incubation for 4 hrs, cells on the membrane were fixed and stained with a Diff-Quick kit (Baxter Scientific Products). Cells on the upper side were scraped off, the membranes were removed, mounted onto microscope slides and analyzed. Each filter was scanned twice at right angles under the light microscope with a 16×phase contrast objective lens. A continuous series of 20 frames for each filter was digitized using a high-resolution CCD camera (Kodak) and stored in a Power Macintosh computer. The two most peripheral pairs of frames from each scan were deleted so that 12 frames were analyzed for each filter. Cells that had crossed the membrane were counted and tabulated. The sum of the cells counted in the twelve frames was an individual data point.

thrombin: potent growth cone repellent; commercially available thrombin (Sigma); rat thrombin in Boyden assays
net activity (pmol/min/mg protein), intact neurons (PLA2; substrate PE): 26.8 ± 1.9 pmol/min/mg protein | net activity (pmol/min/mg protein), intact neurons (PLA2; substrate PI): 42.5 ± 16 pmol/min/mg protein | effect on GCP detachment from laminin (GCPs plated on laminin; 20 min at 37° C., cytochalasin D 1 μM): detached from the substratum in a dose-dependent maaner | growth cones detached from laminin (GCPs plated on laminin; same thrombin concentrations as cPLA2 assays, in presence of calcium, controls 17%): about 46% | stimulation of MARCKS and GAP43 phosphorylation (protein kinase C (PKC)): stimulates MARCKS and GAP43 phosphorylation | stimulation of AA release from PC (cPLA2): about 4 fold | stimulation of AA release from PE (cPLA2): about 4 fold | stimulation of PI hydrolysis (cPLA2): not further stimulated by thrombin | time to pseudopod retraction after addition to cells in culture dish (MAT-Lu cells [1]): 5 to 10 min | effect of agent alone on pseudopod length (MAT-Lu cells [1]; typically 15 min exposure): caused pseudopod shortening in MAT-Lu cells within minutes of administration | effect on cell migration across the membrane (MAT-Lu cells [2]; 200 nM in lower well, 4 hrs, serum-free medium): almost completely suppresses cell migration across the membrane | Mat-Lu cells crossing filter in % of control +/− SEM (MAT-Lu cells [2]; Control column (no IGF-1)): 30.9 +/− 5.7 % of control | Mat-Lu cells crossing filter in % of control +/− SEM (MAT-Lu cells [2]; IGF-1 (0.75 nM)): 38 +/− 9.2 % of control | decrease in control and IGF-1-induced migration across the membrane (MAT-Lu cells [2]; at 200 nM): 70-80%
